Assay results reported in publication PMC12787000 (Molecules, 2025).
Blank lines part the entries; values can stand above or below the molecule they belong to.

Tests used:
[1] = tested on: A375 cells; details: A375, 24 h, compared to untreated control
[2] = tested on: A375 cells; experiment: MTT cell viability assay, A375; type: cell-based; details: 72 h; for IC50: Homo sapiens, A-375, A375, MTT
Protocol: (§1) A375, MRC-5, and HaCaT cell lines were obtained from the American Type Culture Collection (ATCC). 518A2 cell line was kindly provided by Dr. […]ć. All cell lines were cultured in RPMI 1640 medium supplemented with 2 g/L glucose, 10% fetal bovine serum (FBS), and antibiotics. […] Cell viability was assessed using the MTT assay (Sigma Aldrich, #M5655). […] After 72 h of incubation, absorbance was measured at 570 nm using a Multiskan SkyHigh microplate reader (Thermo Fisher Scientific, Helsinki, Finland). Values were corrected by subtracting the absorbance measured in wells containing cell-free medium with tested compounds.

[3] = tested on: 518A2 cells; experiment: MTT cell viability assay, 518A2; type: cell-based; details: Homo sapiens; 518A2, MTT, 72 h
Protocol: as §1

[4] = tested on: A375R cells; experiment: MTT cell viability assay, vemurafenib-resistant A375R; type: cell-based; details: for IC50: A375R, MTT, 72 h
Protocol: as §1

[5] = tested on: HaCaT (human keratinocytes); experiment: MTT cell viability assay, HaCaT; type: cell-based; details: 72 h
Protocol: as §1

[6] = tested on: MRC-5 (fetal fibroblasts); experiment: MTT cell viability assay, MRC-5; type: cell-based; details: Homo sapiens, MRC5; MRC-5, MTT, 72 h
Protocol: as §1

[7] = tested on: A375 cells; experiment: Cellular uptake and subcellular distribution by LC-MS/MS; type: cell-based; details: A375, 25 μM, 24 h; for Compound accumulation normalized to telmisartan, Chromatin Bound: chromatin-bound nuclear fraction; for Compound accumulation normalized to telmisartan, Cytoplasm: cytoplasmic fraction; for Compound accumulation normalized to telmisartan, Cytoskeleton: cytoskeletal fraction; for Compound cell accumulation normalized to telmisartan, Whole Lysate: μmol compound per μg cell protein normalized to telmisartan
Protocol: Cells were then trypsinized, washed with PBS and pelleted. For whole cell lysates, cell pellet was dissolved in RIPA buffer on ice. Fractions and whole cell lysates were stored at -80 °C until use. Protein concentration of lysates was determined with Pierce BCA Protein assay kit (Thermo Fisher #23225), and cell accumulation was calculated as μmol of compound per μg of cell protein and normalized to telmisartan. Concentrations of telmisartan and its derivatives were determined using liquid chromatography-tandem mass spectrometry (LC-MS/MS) method in positive HESI mode. The analysis was performed on UHPLC chromatograph […] (Thermo Fisher Scientific Inc., Madison, WI, USA), coupled to a triple quadrupole mass spectrometer TSQ Quantum Access MAX (Thermo Fisher Scientific Inc., Madison, WI, USA) with heated electrospray ionization (HESI) interface. The column was Zorbax Extend C18 (150 mm × 4.6 mm, 5 μm particle size). […] Experiment was repeated twice.

[8] = molecular target: T1, AT1R (Homo sapiens, UniProt P30556); experiment: Angiotensin II-induced Ca2+ release, Fluo-4 AM live-cell imaging; type: cell-based; details: 2 min; for Effect on AngII-induced Ca2+ increase (combination treatment): A375, 25 μM compound + 1 μM AngII
T1 construct: endogenous in cells; host or cells: A375 melanoma cells (ATCC)
T1 sequence (P30556 1-359): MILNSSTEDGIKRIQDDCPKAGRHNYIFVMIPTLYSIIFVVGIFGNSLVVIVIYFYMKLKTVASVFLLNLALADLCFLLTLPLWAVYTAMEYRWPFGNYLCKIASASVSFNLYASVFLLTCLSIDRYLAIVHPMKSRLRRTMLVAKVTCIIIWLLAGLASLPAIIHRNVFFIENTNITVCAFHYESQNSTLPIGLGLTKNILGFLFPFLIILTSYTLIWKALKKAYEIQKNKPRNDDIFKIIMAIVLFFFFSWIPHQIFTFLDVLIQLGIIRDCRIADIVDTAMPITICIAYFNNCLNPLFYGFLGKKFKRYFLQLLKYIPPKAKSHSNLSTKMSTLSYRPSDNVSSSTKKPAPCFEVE
Protocol: Fluo-4 AM calcium indicator dye (F14201, Molecular Probes, Eugene, OR, USA) was used to observe Ca^2+ dynamics upon treatment, per manufacturer’s instructions. Briefly, 5000 A375 cells/well were seeded in 96-well optical bottom black cell culture plates (165305, Thermo Scientific). Fluo-4 AM stock solution in DMSO was mixed with equal volume of 20% Pluronic F-127 to assist in dispersion of AM esters before dilution into the loading medium. Twenty-four hours after seeding medium was removed, and cells were washed with HBBS without calcium and magnesium. Cells were stained in HBSS medium with 1.25 μM Fluo-4-AM for 30 min at 37 °C. After incubation, cells were washed and incubated in complete medium (10%FBS RPMI) to allow de-esterification for 30 min and then treated with 1 μM human Angiotensin II (A9525, Sigma Aldrich), 50 μM telmisartan, compounds 1, 3, and 8, or the combinations. Images were taken before addition of the treatment (0 min) and after 2 min of treatment on Zeiss PALM MicroBeam Axio Observer Z1 microscope (Carl Zeiss MicroImaging GmbH, Oberkochen, Germany) with Zeiss LD Plan-Neofluar 20×/0.4 Korr, ∞/0–1.5 mm lens and AxioVision SE64 Rel.4.9.1 software. Experiment was repeated three times. Integrated density of Fluo-4 fluorescence at 2 min of exposure to treatment was calculated with Image J, and normalized to the baseline fluorescence at time 0, in at least two random fields for each condition. Conditions were compared with one-way ANOVA and Tukey’s multiple comparisons test. p < 0.05 was considered statistically significant.

[9] = tested on: A375R cells; experiment: Cell cycle distribution (PI, flow cytometry), A375R; type: cell-based; details: 25 µM, 72 h
Protocol: (§2) A375 and A375R cells were seeded in 6-well plates at a density of 150,000 cells per well. On the following day, the cells were treated with 25 µM concentrations of compounds 1, 3, and 8, as well as telmisartan. After 72 h of incubation, the cells were harvested using trypsin, washed with phosphate-buffered saline (PBS), fixed in ethanol, and stored at −20 °C until analysis. Ethanol-fixed cells were treated with RNase A (1 mg/mL) and stained with propidium iodide (PI; 400 µg/mL). A total of 20,000 events were recorded per sample. Quantitative analysis of the cell cycle phase distribution was performed by flow cytometry using a FACSCalibur flow cytometer (Becton Dickinson, San Jose, CA, USA) and BD CellQuest Pro Version 5.2.1 software. Experiment was performed three times. Cells under treatment were compared to controls for each cell phase separately with one-way ANOVA and Dunnett’s multiple comparison tests. p < 0.05 was considered statistically significant.

[10] = set-up: method as in PMID 11014323; details: males, oral intake of 320 mg; cited from earlier work
[11] = tested on: A375 cells; experiment: Cell cycle distribution (PI, flow cytometry), A375; type: cell-based; details: A375, 25 µM, 72 h
Protocol: as §2

[12] = tested on: A375 cells; experiment: Mitochondrial morphology staining (MitoTracker Green FM); type: cell-based; details: A375, 25 μM, 24 h
Protocol: For imaging of the mitochondrial morphology in live cells, A375 cells seeded in 96-well optical bottom plates, as above, were treated for 24 h with 25 μM telmisartan, compound 1, 3, or 8. Treatment was washed away, and cells were stained with 500 nM MitoTracker Green FM (#9074, Cell signaling Technology, Danvers, MA, USA) in RPMI without serum for 30 min at 37 °C. Cells were imaged on Zeiss PALM MicroBeam Axio Observer Z1 microscope (Carl Zeiss MicroImaging GmbH, Oberkochen, Germany) with Zeiss LD Plan-Neofluar 20×/0.4 Korr, ∞/0–1.5 mm lens and AxioVision software. Mitochondrial shape was quantified in images from two biological experimental repeats, in three random fields for each condition, using Image J Analyze Particles function. Images were first processed to 8-bit binary, and circularity and aspect ratio (major axis/minor axis) were calculated and plotted with Prism 9 (GraphPad Software, LLC, Boston, MA, USA). Treatments were compared with untreated control using one-way ANOVA and Dunnett’s multiple comparisons test. p < 0.05 was considered statistically significant.

SMILES: N#CC(C#N)=NNc1ccc(OC(F)(F)F)cc1 [FCCP, carbonyl cyanide 4-(trifluoromethoxy) phenylhydrazone]
Ratio of red JC-1 aggregates to green JC-1 monomers [1]: lowest red/green ratio

IC50 [2]: 43 ± 6.02 µM
SMILES: CCCc1nc2c(C)cc(-c3nc4ccccc4n3C)cc2n1Cc1ccc(-c2ccccc2C(=O)NC(C(=O)O)C(C)CC)cc1 (stereo not drawn) [compound 4, 2-{[4′-(1,7′-dimethyl-2′-propyl-1H-[2,5′]bibenzoimidazolyl-3′-ylmethyl)-biphenyl-2-carbonyl]-amino}-3-methyl-pentanoic acid]
IC50 [3]: 49 ± 3.17 µM

IC50 [2]: 43.2 ± 3.55 µM
SMILES: CCCc1nc2c(C)cc(-c3nc4ccccc4n3C)cc2n1Cc1ccc(-c2ccccc2C(=O)NC(CC(C)C)C(=O)O)cc1 (stereo not drawn) [compound 7, 2-{[4′-(1,7′-dimethyl-2′-propyl-1H-[2,5′]bibenzoimidazolyl-3′-ylmethyl)-biphenyl-2-carbonyl]-amino}-4-methyl-pentanoic acid]
IC50 [3]: 39.7 ± 2.4 µM

IC50 [2]: 59.1 ± 4.17 µM | IC50 [4]: 29.2 ± 3.88 µM | Compound accumulation normalized to telmisartan, Chromatin Bound [7]: 1.00 | Compound accumulation normalized to telmisartan, Cytoplasm [7]: 1.00 | Compound accumulation normalized to telmisartan, Cytoskeleton [7]: 1.00 | Accumulation in the membrane fraction ([7]; membrane fraction): 0.197 µmol/L | Compound accumulation normalized to telmisartan, Membrane ([7]; membrane fraction): 1.00 | Compound cell accumulation normalized to telmisartan, Whole Lysate [7]: 1.00 | Effect on AngII-induced Ca2+ increase (combination treatment) [8]: prevented AngII-induced Ca^2+ increase
SMILES: CCCc1nc2c(C)cc(-c3nc4ccccc4n3C)cc2n1Cc1ccc(-c2ccccc2C(=O)O)cc1 [Telmisartan, reference compound]
IC50 [3]: 70.2 ± 3.83 µM | Selectivity ([4]; A375R versus normal cell lines (HaCaT, MRC-5), from IC50 values): > 2.40 | IC50 [5]: 148 ± 2.89 µM | IC50 [6]: 70.4 ± 5.61 µM | Cell cycle distribution [9]: cell cycle profile comparable to that of the untreated control cells | Maximum steady-state plasma level [10]: around 20 μM

IC50 [2]: 116 ± 6.94 µM
SMILES: CCCc1nc2c(C)cc(-c3nc4ccccc4n3C)cc2n1Cc1ccc(-c2ccccc2C(=O)NCCCC(=O)O)cc1 [compound 6, 4-{[4′-(1,7′-dimethyl-2′-propyl-1H-[2,5′]bibenzoimidazolyl-3′-ylmethyl)-biphenyl-2-carbonyl]-amino}-butyric acid]
IC50 [3]: 89.2 ± 7.37 µM

IC50 [2]: 86.22 ± 0.64 µM
SMILES: CCCc1nc2c(C)cc(-c3nc4ccccc4n3C)cc2n1Cc1ccc(-c2ccccc2C(=O)NCC(=O)O)cc1 [compound 5, {[4′-(1,7′-dimethyl-2′-propyl-1H-[2,5′]bibenzoimidazolyl-3′-ylmethyl)-biphenyl-2-carbonyl]-amino}-acetic acid]
IC50 [3]: 81.5 ± 6.28 µM

IC50 [2]: 27.2 ± 0.63 µM | IC50 [4]: 19.7 ± 8.87 µM | Compound accumulation normalized to telmisartan, Chromatin Bound [7]: 36.22 | Compound accumulation normalized to telmisartan, Cytoplasm [7]: 17.80 | Compound accumulation normalized to telmisartan, Cytoskeleton [7]: 21.14 | Compound accumulation normalized to telmisartan, Membrane ([7]; membrane fraction): 106.59 | Compound cell accumulation normalized to telmisartan, Whole Lysate [7]: 12.08
SMILES: CCCc1nc2c(C)cc(-c3nc4ccccc4n3C)cc2n1Cc1ccc(-c2ccccc2C(=O)NC(Cc2cn(C)c3ccccc23)C(=O)O)cc1 (stereo not drawn) [compound 1, 2-{[4′-(1,7′-dimethyl-2′-propyl-1H-[2,5′]bibenzoimidazolyl-3′-ylmethyl)-biphenyl-2-carbonyl]-amino}-3-(1-methyl-1H-indol-3-yl)-propionic acid]
Effect on cell viability at single concentration ([2]; A375, 25 μM, MTT): significant reductions in cell viability | IC50 [3]: 23.5 ± 2.08 µM | IC50 [5]: 43.9 ± 3.42 µM | IC50 [6]: 26.7 ± 2.48 µM | Effect on AngII-induced Ca2+ increase (combination treatment) [8]: did not prevent AngII-induced Ca^2+ increase | Effect of compound alone on baseline Ca2+ signaling ([8]; A375, compound alone): no significant changes in the baseline Ca^2+ signaling | Cell cycle distribution [11]: increased accumulation of cells in the subG1 phase, albeit not statistically significant | Cell cycle distribution [9]: cell accumulation in the G0/G1 phase | Mitochondrial network morphology [12]: dramatic fission and clumping of mitochondria

IC50 [2]: > 150 µM
SMILES: CCCc1nc2c(C)cc(-c3nc4ccccc4n3C)cc2n1Cc1ccc(-c2ccccc2C(=O)NC(Cc2cnc[nH]2)C(=O)O)cc1 (stereo not drawn) [compound 2, 2-{[4′-(1,7′-dimethyl-2′-propyl-1H-[2,5′]bibenzoimidazolyl-3′-ylmethyl)-biphenyl-2-carbonyl]-amino}-3-(3H-imidazol-4-yl)-propionic acid]
IC50 [3]: > 150 µM
